Measurements: patent US4436732A, “Medicated compound for treating diseases infected by virus of the herpes group” (priority 1981, dated 1984)

Tests used:
[1] = effect on hemodynamics and breathing, acute experiment on narcotized cats; type: in vivo; conditions: 50 mg/kg intra-stomach
Protocol: The study of the effect of this compound on the characteristics of hemodynamics and breathing has been carried out in an acute experiment on 6 narcotized cats (urethane 1.0 g/kg, chloralose 60 mg/kg) upon the intra-stomach administration of the active principle in the dose of 50 mg/kg. In each cat simultaneously recorded were the breathing frequency cardiac contraction frequency, systemic arterial pressure, amplitude of the volume blood flow in the abdominal aorta, amplitude of the brain rheograms and femur muscles rheorgrams.

[2] = mutagenous activity
[3] = solubility of the active principle; type: physicochemical
Description: The active principle is an individual substance of the xanthone nature (mangiferin euxantogen) of the formula C19 H18 O11. […] This compound has not been hitherto used in the medicine.

[4] = effect on the intensity of bile secretion, acute tests; type: in vivo, cats; conditions: 20 and 50 mg/kg
Description: In acute tests on cats the effect of the active principle on the intensity of bile secretion has been studied.

[5] = effect on characteristics of blood coagulation; type: in vivo, rabbits; conditions: per os, 50 mg/kg, during 4 hours
Protocol: The study of the effect of the active principle on certain characteristics of blood coagulation has been carried out on 5 rabbits. The compound is administered per os in the dose of 50 mg/kg as a suspension in a 2% starch paste. Blood has been examined prior to the administration and during 4 hours after a single-time administration of the suspension; determined are: blood plasma recalcification, thrombin time, thrombelastographic characteristics and thrombocyte concentration.

[6] = tested on: herpetic encephalitis (HV); experiment: experimental virus model of herpetic encephalitis of white mice; type: in vivo; conditions: for Average life span: control 4.78 ± 0.46; for Life span: control 12.7 ± 2.6; for Survival, %: control 70
Protocol: The chemotherapeutic effect of the active principle and the pharmaceutical composition on the whole has been studied on an experimental virus model of herpetic encephalitis of white mice. In the experiments more than 1,500 animals were used. To obtain the experimental encephalitis, white mice weighing 8-10 g have been infected intracerebrally. Prior to the infection the animal head skin is smeared with iodine, then ten-times dilutions of the virus-containing liquid in the volume of 0.03 ml are injected by means of a tuberculin syringe into the supraorbital area near the front median line to a depth of 1-2 mm directly into the brain. 3 to 7 days thereafter in the animals there were observed the disease signs (excitation, coordination disturbance, adynamia, paresis and paralysis) which were rapidly intensified and terminated in death. The experiments were assessed by the animal survival (in percent) and by the average life span of the test animals as compared to the control.
For treatment purposes the active principle or the medicated compound in the form of tablets is administered to the infected animals per os by means of a gastric tube as an aqueous suspension in the volume of 0.5 ml in doses of 20 to 500 mg/kg of the body weight 1 or 2 times per day. The tests have been carried out according to three schemes. In the first scheme, in order to preliminarily saturate the animal's organism with the active principle or the preparation were administered to the animals 1-2 days before the infection (preventive test). In the second scheme, to reveal the therapeutic effect of the active principle or the pharmaceutical composition, the compositions were introduced on the infection day and one or two days after the infection. In the third scheme (treatment-prophylaxis) the active principle or the medicated compound is administered the day before the infection or on the infection day, in both cases the treatment of the animal is continued for 5 to 7 days after the infection.
The most advantageous chemotherapeutic effect of the active principle or the pharmaceutical composition is manifested under the conditions of the treatment-prophylaxis application (third scheme).

[7] = neurotropic activity: influence upon the somnific effects of hexenal or chloralhydrate; type: in vivo; conditions: per os, 1, 10 and 100 mg/kg
Protocol: The neurotropic activity of the active principle is assessed through its influence upon the somnific effects of hexenal or chloralhydrate. The substance is introduced per os in the doses of 1, 10 and 100 mg/kg.

[8] = cardiorhythmic effect on the aconitine model of arrhythmia; type: in vivo, rat; conditions: intravenous, 10 and 50 mg/kg
Protocol: The cardiorhythmic effect of the active principle has been studied on the rat's aconitine model of arrhythmia upon its intravenous administration in the doses of 10 and 50 mg/kg.

[9] = anti-ulcerous effect on the model of caffeine-arsenic ulcer; type: in vivo, rats; conditions: per os for nine days, 20 mg/kg
Protocol: The anti-ulcerous effect of the active principle has been studied on the model of caffeine-arsenic ulcer in rats. The substance is administered per os for nine days in the doses of 1, 10 and 20 mg/kg.

[10] = once a day, 0.04 mg/mice, P above 0.5
[11] = once a day, 0.2 mg/mice, P above 0.25
[12] = once a day, 1 mg/mice, P above 0.25
[13] = once a day, 5 mg/mice, P above 0.5
[14] = two times a day, 0.04 mg/mice, P above 0.1
[15] = two times a day, 0.2 mg/mice, P below 0.05
[16] = two times a day, 1 mg/mice, P below 0.05
[17] = two times a day, 5 mg/mice, P above 0.1

O=c1c2cc(O)c(O)cc2oc2cc(O)c([C@@H]3O[C@H](CO)[C@@H](O)[C@H](O)[C@H]3O)c(O)c12 [active principle, 2-C-β-D-glucopyranosyl-1,3,6,7-tetraoxyxanthone]
other characteristics of hemodynamics ([1]; narcotized cats): not substantially changed | systemic arterial pressure ([1]; narcotized cats): slightly lowers | reduction of arterial pressure ([1]; 60 and 90 minutes): do not differ from the control | reduction of breathing frequency vs control ([1]; 60 and 90 minutes): do not differ from the control | reduction of breathing frequency ([1]; 10 minutes, P below 0.05): 21% | reduction of breathing frequency ([1]; 30 minutes, P below 0.01): 32% | mutagenous activity [2]: no mutagenous activity | solubility in chloroform ([3]; chloroform): insoluble | solubility in ethanol ([3]; ethanol): sparingly soluble | solubility in ethyl ether ([3]; ethyl ether): insoluble | solubility in water ([3]; water): insoluble | bile secretion intensity [4]: does not increase | effect on the blood coagulation process [5]: does not substantially affect | chemotherapeutic effect ([6]; administration in maximum shortest time of the infection (Table 2)): highest | chemotherapeutic effect ([6]; administration two times a day (Table 1)): highest, statistically certain chemotherapeutic effect | chemotherapeutic effect (time of death vs control) ([6]; first two schemes (preventive; therapeutic), per os): impossible to reveal statistically certain chemotherapeutic effect | Average life span ([6]; on the infection day, 1 mg/mice, P above 0.25): 5.16 ± 0.91 days | Average life span ([6]; on the infection day, 2 mg/mice, P above 0.5): 5.0 ± 0.56 days | Average life span ([6]; on the infection day, 5 mg/mice, P below 0.05): 6.41 ± 0.71 days | Life span [6, 10]: 13.3 ± 2.5 days | Survival, % [6, 10]: 80% | Life span [6, 11]: 14.0 ± 2.3 days | Survival, % [6, 11]: 90% | Life span [6, 12]: 14.0 ± 2.2 days | Survival, % [6, 12]: 90% | Life span [6, 13]: 13.1 ± 2.7 days | Survival, % [6, 13]: 70% | Average life span ([6]; one day before infection, 1 mg/mice, P 0.05): 5.6 ± 0.82 days | Average life span ([6]; one day before infection, 2 mg/mice, P below 0.05): 6.05 ± 0.83 days | Average life span ([6]; one day before infection, 5 mg/mice, P below 0.05): 6.13 ± 1.04 days | Life span [6, 14]: 14.1 ± 0.9 days | Survival, % [6, 14]: 90% | Life span [6, 15]: 15.0 days | Survival, % [6, 15]: 100% | Life span [6, 16]: 15.0 days | Survival, % [6, 16]: 100% | Life span [6, 17]: 14.3 ± 2.5 days | Survival, % [6, 17]: 90% | effect on duration of sleep caused by chloralhydrate [7]: no substantial effect | effect on duration of sleep caused by hexenal [7]: no substantial effect | cardiorhythmic effect [8]: no cardiorhythmic effect | anti-ulcerous effect [9]: weak anti-ulcerous effect
